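The compound was tested at five concentrations on cells cultured in 96-well plates, with a 48-hour exposure period. At the GI50, growth is halved. The concentration for full growth arrest is given as TGI.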 Some results are limits rather than exact numbers.

Among the test systems are A549 NSCLC; CAKI-1 renal; CCRF-CEM leukemia; EKVX NSCLC; HOP-92 NSCLC; K-562 leukemia; OVCAR-4 ovarian; SF-295 CNS; SW-620 colon; UACC-257 melanoma.
Test in all cases: NCI anticancer screen, dose series, 48 h

In the case of `COc1ccc2c(c1)c(=O)c1c(NCCN(C)C)ccc3nnn2c31`, the TGI came to 12.8 µM with A549 NSCLC; 13.6 µM in the test on CAKI-1 renal; 10.3 µM in the test with CCRF-CEM leukemia; 17.9 µM in the test on EKVX NSCLC; 10.8 µM in the test with HOP-92 NSCLC; 15.5 µM with K-562 leukemia. The TGI with OVCAR-4 ovarian came to 8.17 µM; with SF-295 CNS, 13.9 µM; in the test on SW-620 colon, 9.11 µM; with UACC-257 melanoma, 17 µM.

On to `CC(CN(C)C)C(=O)c1ccccc1` (stereo not drawn), for which the TGI was greater than 100 µM in the test with A549 NSCLC; 15.6 µM in the test on CAKI-1 renal; 27.2 µM with CCRF-CEM leukemia; greater than 79 µM in the test on EKVX NSCLC; 6.87 µM in the test with HOP-92 NSCLC; greater than 100 µM in the test with K-562 leukemia. In addition, the TGI is greater than 55.5 µM in the test on OVCAR-4 ovarian, greater than 100 µM in the test with SF-295 CNS, 27 µM in the test with SW-620 colon and greater than 84.7 µM with UACC-257 melanoma.

Regarding `NC(Cc1ncccn1)C(=O)O` (stereo not drawn), the TGI in the test with A549 NSCLC, in the test on CAKI-1 renal, in the test with CCRF-CEM leukemia, with EKVX NSCLC, with HOP-92 NSCLC and in the test on K-562 leukemia was greater than 100 µM in each case. Further, the TGI in the test on OVCAR-4 ovarian, in the test on SF-295 CNS, with SW-620 colon and with UACC-257 melanoma was greater than 100 µM in each case.

In the case of `O=C(NCCNc1nccc(-c2c(-c3cccc(O)c3)nc3sccn23)n1)c1ccccc1`, the GI50 in the test with A549 NSCLC was 9.21 µM; in the test with CAKI-1 renal it was 5.92 µM; in the test on CCRF-CEM leukemia it was 3.38 µM; in the test on EKVX NSCLC, 25 µM; in the test on HOP-92 NSCLC it was 2.22 µM; in the test on K-562 leukemia, 9.11 µM. The GI50 is 13.9 µM in the test with OVCAR-4 ovarian, 12.9 µM with SF-295 CNS, 18 µM in the test with SW-620 colon and 0.489 µM in the test with UACC-257 melanoma. Besides, the TGI in the test on A549 NSCLC is 46.5 µM; with CAKI-1 renal, 29.6 µM; in the test with CCRF-CEM leukemia it was 34.1 µM; with EKVX NSCLC, greater than 100 µM; in the test on HOP-92 NSCLC it was 33.2 µM; in the test on K-562 leukemia, greater than 100 µM. Moreover, the TGI in the test with OVCAR-4 ovarian was found to be 84.6 µM; with SF-295 CNS, 38 µM; with SW-620 colon, 79.5 µM; in the test on UACC-257 melanoma, 18.5 µM.

As for `ClCc1cccc(CSc2ncnc3c2ncn3Cc2cccc(CCl)c2)c1`, the GI50 with A549 NSCLC was 4.54 µM; in the test on CAKI-1 renal, 1.92 µM; with CCRF-CEM leukemia, 1.6 µM; in the test on EKVX NSCLC it was 10.1 µM; in the test on HOP-92 NSCLC, 1.64 µM; in the test with K-562 leukemia it was 2.71 µM. Besides, the GI50 in the test on OVCAR-4 ovarian is 2.38 µM; in the test on SF-295 CNS, 2.13 µM; with SW-620 colon, 1.69 µM; with UACC-257 melanoma, 1.74 µM. Besides, the TGI in the test with A549 NSCLC was 18.4 µM; in the test on CAKI-1 renal it was 4.34 µM; with CCRF-CEM leukemia it was 6.95 µM; with EKVX NSCLC it was 24.6 µM; with HOP-92 NSCLC, 3.32 µM; with K-562 leukemia, 15 µM. The TGI in the test with OVCAR-4 ovarian worked out at 10.6 µM; with SF-295 CNS, 5.59 µM; with SW-620 colon, 3.47 µM; with UACC-257 melanoma, 3.37 µM.

For the compound `O=S(=O)(O)c1ccc2c(N=Nc3ccc(Cl)cc3)c(O)ccc2c1`, the TGI in the test on A549 NSCLC, with CAKI-1 renal, with CCRF-CEM leukemia, with EKVX NSCLC, in the test with HOP-92 NSCLC and in the test on K-562 leukemia was greater than 100 µM in each case. Moreover, the TGI in the test on OVCAR-4 ovarian, with SF-295 CNS, in the test with SW-620 colon and in the test with UACC-257 melanoma was greater than 100 µM throughout.

Turning to `CC(C)/C(=N\[N+](C)(C)C)c1ccccc1`, the TGI in the test with A549 NSCLC, in the test on CAKI-1 renal, in the test on CCRF-CEM leukemia, in the test on EKVX NSCLC, in the test on HOP-92 NSCLC and in the test on K-562 leukemia was greater than 100 µM each time. The TGI in the test with OVCAR-4 ovarian, in the test with SF-295 CNS, with SW-620 colon and in the test with UACC-257 melanoma was greater than 100 µM each time.

Regarding `CCOC(=O)Cc1cnc(NC(NC(=O)CC)(C(F)(F)F)C(F)(F)F)s1`, the TGI in the test on CCRF-CEM leukemia, in the test on EKVX NSCLC, in the test on K-562 leukemia and with UACC-257 melanoma was greater than 100 µM throughout.

With `COc1c2c(cc3c1C1(O)Cc4ccc5c(c4C[N+]1(C)CC3)OCO5)OCO2` (stereo not drawn), the TGI with A549 NSCLC, in the test on CAKI-1 renal, in the test on CCRF-CEM leukemia, in the test on EKVX NSCLC, in the test on HOP-92 NSCLC and in the test with K-562 leukemia was greater than 100 µM throughout. The TGI in the test on OVCAR-4 ovarian, in the test on SF-295 CNS, in the test on SW-620 colon and in the test with UACC-257 melanoma was greater than 100 µM each time.

In the case of `COc1ccc(C2C3CCCC(C3=O)C(c3ccc(OC)cc3)N2N=O)cc1` (stereo not drawn), the TGI is greater than 88.2 µM in the test with A549 NSCLC; greater than 100 µM in the test with CAKI-1 renal; greater than 70.7 µM in the test with CCRF-CEM leukemia; 99.6 µM in the test with EKVX NSCLC; greater than 100 µM with HOP-92 NSCLC; greater than 66 µM with K-562 leukemia. The TGI with OVCAR-4 ovarian was 45 µM; with SF-295 CNS, 45.8 µM; in the test on SW-620 colon, greater than 100 µM; with UACC-257 melanoma, 82.7 µM.

As for `COc1cccc2cc(C(C)=O)c(=O)oc12`, the TGI in the test with A549 NSCLC, with CAKI-1 renal, in the test with CCRF-CEM leukemia, in the test on EKVX NSCLC, in the test with HOP-92 NSCLC and in the test with K-562 leukemia was greater than 100 µM throughout. Also, the TGI with OVCAR-4 ovarian, with SF-295 CNS, with SW-620 colon and in the test on UACC-257 melanoma was greater than 100 µM in each case.

Take `O=C(NNS(=O)(=O)c1ccccc1)c1cccnc1`: the TGI in the test on A549 NSCLC, in the test on CAKI-1 renal, in the test with CCRF-CEM leukemia, with EKVX NSCLC, in the test with HOP-92 NSCLC and in the test with K-562 leukemia was greater than 100 µM each time. Further, the TGI in the test with OVCAR-4 ovarian, with SF-295 CNS, in the test with SW-620 colon and in the test on UACC-257 melanoma was greater than 100 µM throughout.

`COc1cc(C2c3cc4c(cc3[C@@H](Oc3ccc(F)cc3)C3COC(=O)[C@H]23)OCO4)cc(OC)c1O` (stereo partly drawn): the TGI in the test on A549 NSCLC is greater than 100 µM; in the test with CAKI-1 renal it was 14.5 µM; in the test with CCRF-CEM leukemia, greater than 23.2 µM; in the test on EKVX NSCLC, greater than 100 µM; with HOP-92 NSCLC, greater than 100 µM; in the test with K-562 leukemia, 30.4 µM. In addition, the TGI in the test with OVCAR-4 ovarian was greater than 100 µM; in the test on SF-295 CNS, greater than 60 µM; with SW-620 colon it was greater than 100 µM; in the test with UACC-257 melanoma, 22.8 µM.

Turning to `C[N+]1(CCC[N+]2(C)CC3C4C=CC(CC4)C3C2)CCOCC1` (stereo not drawn), the TGI in the test with A549 NSCLC, with CAKI-1 renal, in the test on CCRF-CEM leukemia, in the test on EKVX NSCLC, with HOP-92 NSCLC and in the test on K-562 leukemia was greater than 100 µM throughout. In addition, the TGI with OVCAR-4 ovarian, in the test on SF-295 CNS, in the test on SW-620 colon and in the test on UACC-257 melanoma was greater than 100 µM throughout.

Take `O=C(Nc1cccc2ccccc12)c1ccccc1`: the TGI in the test with A549 NSCLC, in the test on CAKI-1 renal, with CCRF-CEM leukemia, with EKVX NSCLC, in the test on K-562 leukemia and with OVCAR-4 ovarian was greater than 100 µM each time. Besides, the TGI in the test with SF-295 CNS, in the test on SW-620 colon and in the test with UACC-257 melanoma was greater than 100 µM each time.

The record behind these values is PubChem BioAssay (NCI).
